How the values were obtained:
Format in all cases: in vivo, mice (Std:ddY, male)
[1] = tested on: pain threshold (tail-pressure); assay: Analgesic activity by the tail-pressure method (s.c.); settings: mouse, 10 mg/10 ml at 10 ml/kg s.c., 1 hour after administration, mean ± standard error
Protocol: (1) Measurement of Analgesic Activity by the Tail-Pressure Method
Std:ddY Strain male mice (20-25 g) were fasted for one day before the experiment, and were used. After test compounds shown in Table 1 was formed to a salt with tartaric acid, this salt was dissolved in 0.9% physiological saline solutions at the rate of 10 mg/10 ml to give the test compoun d solution . As a control, 0.9% physiological saline solution was used. A tail-pressure apparatus was used in this experiments. Before the administration of test compounds, the pain threshold was measured twice at intervals of 30 minutes and those mice indicating a pain threshold of 50 to 100 mmHg were selected and used. The pain threshold of each mouse was measured at 1 hour after test compound solution mentioned above was administered at 10 ml/kg, s.c. 0.9% Physiological saline solution as a control was administered at 10 ml/kg, s.c . The results were described as an inhibition rate (%) obtained from the following equation. Cutoff level of pressure was defined to be 230 mmHg for the prevention of the damage of mouse tail.
Inhibition rate (%)=(A-B)×100/(C-B)
A: Pain threshold (mmHg) after the administration of test compound solution
B: Pain threshold (mmHg) before the administration of test compound solution
C: Cutoff pressure (230 mmHg)

[2] = tested on: nociceptive response (licking); assay: Analgesic activity by the hot-plate method; settings: mouse, 52° C. plate, solution 10 mg/10 ml, mean ± standard error
Protocol: Measurement of Analgesic Activity by the Hot-Plate Method
Std:ddY Strain male mice (20-25 g) were fasted for one day before the experiment, and were used. After compounds shown in Table 1 were formed to the tartaric acid salts, these compounds were dissolved in 0.9% physiologocal saline solution at the rate of 10 mg/10 ml, respectively and these solution were used as test compound solution. In a control, 0.9% physiological saline solution was used. Mice were placed on a cyrindric hot plate (diameter: 22 cm, height: 11 cm) made of copper which was fixed in a water bath adjusted to 52° C. so that each animal's four paws came into contact with the plate and the time taken to show the nociceptive response (licking) as an index of pain was measured. Mice showing response latency above 25 seconds were excluded from the experiment. To prevent a burn damage of mouse tissue by heating, cutoff time of 50 seconds was defined. The results were described as an inhibition rate (%) obtained from the following equation.
Inhibition rate (%)=(A-B)×100/(50-B)
A: Response latency (seconds) after the administration of test compound solution
B: Response latency (seconds) before the administration of test compound solution

[3] = tested on: carrageenin-induced paw edema; assay: Antiinflammatory activity by the carrageenin-induced hind paw edema; settings: mouse, 30 mg/kg p.o., mean ± standard error, n = 6
Protocol: Measurement of Antiinflammatory Activity by the Carrageenin-Induced Hind Paw Edema
Std:ddY Strain male mice (20-25 g) were fasted for one day before the experiment, and were used. After test compounds shown in Table 1 was formed to a salt with tartaric acid, this salt was dissolved in sterilized and distilled water at the rate of 30 mg/10 ml to give the test compound solution. As a control, sterilized and distilled water was used. One hour after the oral administration of test compound solutions, 25 μl of λ-carrageenin suspended in 0.9% physiological saline solution (0.5 mg/25 μl) was injected s.c. under the plantar surface of the right hind paw of a mouse and 25 μl of 0.9% physiological saline solution was injected s.c. under the plantar surface of the left hind paw of the same mouse. Three hours and five hours after carrageenin injection, the […] of the paw was measured with a dial gauge calliper. To the control group, One hour after the oral administration of sterilized and distilled water at the rate of 10 ml/kg, 25 μl of λ-carrageenin (0.5 mg/25 μl) suspended in 0.9% physiological saline solution was injected s.c. under the plantar surface of the right hind paw of a mouse and 25 μl of 0.9% physiological saline solution was injected s.c. under the plantar surface of the left hind paw of the same mouse and the later operation was done in the same manner as in the test compound dosing group mentioned above. The results were described as a swelling rate (%) obtained from the following equation.
Swelling rate (%)=(R-L)×100/L
R: the thickness of the right hind paw
L: the thickness of the left hind paw

[4] = tested on: pain threshold (tail-pressure); assay: Tail-pressure method, comparison with morphine (i.v.); settings: mean ± standard error
Protocol: (2) Comparison with Morphine
Std:ddY Strain male mice (20-25 g) were fasted for one day before the experiment, and were used. In this experiment, the tartaric acid salt of a compound of number (2) in Table 1 and morphine hydrochloride as a possitive control were used. This tartaric acid salt was dissolved in 0.9% physiological saline solution at the rates of 5 mg/2 ml, 3 mg/2 ml and 1 mg/2 ml. Morphine hydrochloride was dissolved in 0.9% physiological saline solution at the rates of 5 mg/2 ml, 3 mg/2 ml and 1 mg/2 ml. As a negative control, 0.9% phisiological saline solution was used. A tail-pressure apparatus was used in this experiments. Before the administration of test compounds, the pain threshold was measured twice at intervals of 30 minutes and those mice indicating a pain threshold of 50 to 100 mmHg were selected and used. The pain threshold of each mouse was measured at 10, 20 and 30 minutes after test compound solution mentioned above was administered at 2 ml/kg, i.v. 0.9% Physiological saline solution as a control was administered i.v. The results were described as an inhibition rate (%) indicating in the preceding paragraph (1).

[5] = tested on: pain threshold (tail-pressure); assay: Tail-pressure method, experiment combined with morphine administration; settings: mean ± standard error, n = 7
Protocol: (3) Experiment Combined with Morphine Administration
Std:ddY Strain male mice (20-25 g) were fasted for one day before the experiment, and were used. In this experiment, the tartaric acid salt of a compound of number (2) in Table 1 and morphine hydrochloride were used. The tartaric acid salt of a compound of number (2) was dissolved in 0.9% physiological saline solution at the rate of 7 mg/10 ml. Morphine hydrochloride was dissolved in 0.9% physiological saline solution at the rates of 5 mg/2 ml, 3 mg/2 ml and 1 mg/2 ml. As a control, 0.9% phisiological saline solution was used. A tail-pressure apparatus was used in this experiments. Before the administration of test compounds, the pain threshold was measured twice at intervals of 30 minutes and those mice indicating a pain threshold of 50 to 100 mmHg were selected and used. Mice was divided in the following four groups, (i) control group, (ii) the administration group of the tartaric acid salt of a compound of number (2), (iii) the administration group of morphine hydrochloride and (iv) the combined administration group with the tartaric acid salt of a compound of number (2) and morphine hydrochloride. In the administration group of the tartaric acid salt of a compound of number (2), 0.9% physiological saline solution of this tartaric acid salt mentioned above was injected s.c. at the rate of 10 ml/kg and, 30 minutes later, 0.9% physiological saline solution was injected i.v. at the rate of 2 ml/kg. In the administration group of morphine hydrochloride, 0.9% physiological saline solution was injected s.c. at the rate of 10 ml/kg and, 30 minutes later, the above physiological saline solution of morphine hydrochloride was injected i.v. at the rate of 2 ml/kg. In the combined administration group with the tartaric acid salt of a compound of number (2) and morphine hydrochloride,the above physiological saline solution of the tartaric acid salt of a compound of number (2) was injected s.c. at the rate of 10 ml/kg and, 30 minutes later, the above physiological saline solution of morphine hydrochloride was injected i.v. at the rate of 2 ml/kg. In control group, 0.9% physiological saline solution was injected s.c. at the rate of 10 ml/kg and, 30 minutes later, 0.9% physiological saline solution was injected i.v. at the rate of 2 ml/kg. Each pain threshold was measured 10, 20 and 30 minutes after an intravenous injection. The results were described in Table 9 as an inhibition rate (%) indicating in the preceding paragraph (1).

[6] = tested on: pain threshold (tail-pressure); assay: Tail-pressure method, experiment combined with morphine antagonist (levallorphan); settings: mean ± standard error
Protocol: (4) Experiment Combined with Morphine Antagonist
Std:ddY Strain male mice (20-25 g) were fasted for one day before the experiment, and were used. In this experiment, the tartaric acid salt of a compound of number (2) in Table 1, morphine hydrochloride and levallorphan hydrochloride of an opioid antagonist were used. The tartaric acid salt of a compound of number (2) was dissolved in 0.9% physiological saline solution at the rate of 10 mg/2 ml. Morphine hydrochloride was dissolved in 0.9% physiological saline solution at the rate of 10 mg/2 ml. Levallorphan hydrochloride was dissolved in 0.9% physiological saline solution at the rate of 1 mg/10 ml. As a control, 0.9% physiological saline solution was used. A tail-pressure apparatus was used in this experiments. Before the administration of levallorphan hydrochloride, the pain threshold was measured twice at intervals of 30 minutes and those mice indicating a pain threshold of 50 to 100 mmHg were selected and used. Levallorphan hydrochloride solution mentioned above was administered s.c. at the rate of 10 ml/kg and, 30 minutes later, the above tartaric acid salt solution compound of number (2) or morphine hydrochloride solution was injected i.v. at the rate of 2 ml/kg, respectively. Each pain threshold was measured 10, 20 and 30 minutes after an intravenous injection. In control group, 0.9% physiological saline solution was injected i.v. at the rate of 2 ml/kg at 30 minutes after s.c. administration at 10 ml/kg of 0.9% physiological saline solution. In the single administration group of levallorphan hydrochloride, levallorphan hydrochloride solution mentioned above was administered s.c. at the rate of 10 ml/kg and, 30 minutes later, 0.9% physiological saline solution was injected i.v. at the rate of 2 ml/kg. The results were described in Table 10 as an inhibition rate (%) indicating in the preceding paragraph (1).

Compound: 15-O-acetyl-8-deoxy-14-O-p-chlorobenzoylaconine [(8)]
- Inhibition rate (tail-pressure method) [1]: 26 ± 7%
- Inhibition rate (hot-plate method) [2]: 48 ± 8%
- Swelling rate ([3]; 3 hour): 41 ± 5%
- Swelling rate ([3]; 5 hour): 55 ± 8%

Compound: 15-O-acetyl-8-deoxy-14-O-p-chlorobenzoylmesaconine [(7)]
- Inhibition rate (tail-pressure method) [1]: 35 ± 10%
- Inhibition rate (hot-plate method) [2]: 49 ± 11%
- Swelling rate ([3]; 3 hour): 43 ± 8%
- Swelling rate ([3]; 5 hour): 48 ± 8%

Compound: CN1CC[C@]23c4c5ccc(O)c4O[C@H]2[C@@H](O)C=C[C@H]3[C@H]1C5 [morphine, reference compound]
- Inhibition rate ([4]; 1 mg/kg i.v., 10 minutes): 1 ± 2%
- Inhibition rate ([4]; 1 mg/kg i.v., 20 minutes): 2 ± 2%
- Inhibition rate ([4]; 1 mg/kg i.v., 30 minutes): 2 ± 1%
- Inhibition rate ([4]; 3 mg/kg i.v., 10 minutes): 13 ± 7%
- Inhibition rate ([4]; 3 mg/kg i.v., 20 minutes): 18 ± 10%
- Inhibition rate ([4]; 3 mg/kg i.v., 30 minutes): 12 ± 8%
- Inhibition rate ([4]; 5 mg/kg i.v., 10 minutes): 38 ± 12%
- Inhibition rate ([4]; 5 mg/kg i.v., 20 minutes): 30 ± 10%
- Inhibition rate ([4]; 5 mg/kg i.v., 30 minutes): 29 ± 12%
- Inhibition rate ([5]; morphine 1 mg/kg i.v. alone, 10 min): 2 ± 2%
- Inhibition rate ([5]; morphine 1 mg/kg i.v. alone, 20 min): 3 ± 4%
- Inhibition rate ([5]; morphine 1 mg/kg i.v. alone, 30 min): 1 ± 2%
- Inhibition rate ([5]; morphine 3 mg/kg i.v. alone, 10 min): 11 ± 8%
- Inhibition rate ([5]; morphine 3 mg/kg i.v. alone, 20 min): 15 ± 9%
- Inhibition rate ([5]; morphine 3 mg/kg i.v. alone, 30 min): 10 ± 6%
- Inhibition rate ([5]; morphine 5 mg/kg i.v. alone, 10 min): 36 ± 10%
- Inhibition rate ([5]; morphine 5 mg/kg i.v. alone, 20 min): 32 ± 11%
- Inhibition rate ([5]; morphine 5 mg/kg i.v. alone, 30 min): 26 ± 8%
- Inhibition rate ([6]; 10 mg/kg i.v., with levallorphan 1 mg/kg s.c. 30 minutes before, 10 min): 10 ± 1%
- Inhibition rate ([6]; 10 mg/kg i.v., with levallorphan 1 mg/kg s.c. 30 minutes before, 20 min): 10 ± 7%
- Inhibition rate ([6]; 10 mg/kg i.v., with levallorphan 1 mg/kg s.c. 30 minutes before, 30 min): 20 ± 6%
- Inhibition rate ([6]; 10 mg/kg i.v., without levallorphan, 10 min): 70 ± 13%
- Inhibition rate ([6]; 10 mg/kg i.v., without levallorphan, 20 min): 73 ± 9%
- Inhibition rate ([6]; 10 mg/kg i.v., without levallorphan, 30 min): 65 ± 12%

Compound: COCC12CCC(OC)C34C5CC6(O)C(OC)C(OC(C)=O)C(O)(C5C6OC(=O)c5ccc(Cl)cc5)C(C(OC)C13)C4N(C)C2 (stereo not drawn) [(6), 15-O-acetyl-14-O-p-chlorobenzoylhypaconine]
- Inhibition rate (tail-pressure method) [1]: 27 ± 11%
- Inhibition rate (hot-plate method) [2]: 46 ± 8%
- Swelling rate ([3]; 3 hour): 46 ± 5%
- Swelling rate ([3]; 5 hour): 60 ± 5%

Compound: C=CCN1CC[C@]23CCCC[C@H]2[C@H]1Cc1ccc(O)cc13 [levallorphan]
- Inhibition rate ([6]; levallorphan 1 mg/kg s.c. alone, 10 min after i.v. injection): 3 ± 4%
- Inhibition rate ([6]; levallorphan 1 mg/kg s.c. alone, 20 min after i.v. injection): -3 ± 4%
- Inhibition rate ([6]; levallorphan 1 mg/kg s.c. alone, 30 min after i.v. injection): 1 ± 3%
